Among the test systems are NCI-H522; NCI-H23; SNB-19; HL-60; ACHN; EKVX; COLO 205; SN12C; SF-268; CAKI-1; SK-OV-3; MDA-MB-435; PC-3; U-251; HCT-15; SNB-75; UACC-62; OVCAR-8; HOP-92; Malme-3M.
What all share (assay): NCI anticancer screen, dose series, 48 h

The values that follow come from ChEMBL document CHEMBL1201862, “PubChem BioAssay data set” (2004).

The structures appear in SMILES notation.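 Step 1: Grow cells in 96-well plates. Step 2: Expose to compound for 48 hours at 5 concentrations. Step 3: Interpolate endpoints linearly; if unreached, use highest concentration. Here, GI50 denotes the concentration required for 50% inhibition of growth.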 Calls of active or inactive are those of the source. No stated cut-off is given here; in the data, active = GI50 up to about 1.1 µM and inactive = higher.

As to `COc1cc([N+](=O)[O-])ccc1NC(=O)C(F)(F)F`, the GI50 in the test with NCI-H522 was 80.7 µM (inactive); in the test with NCI-H23, > 100 µM (inactive); in the test on SNB-19, > 100 µM (inactive); with HL-60, > 100 µM (inactive); in the test with ACHN, > 100 µM (inactive); in the test with EKVX it was > 100 µM (inactive). Besides, the GI50 in the test with COLO 205, with SN12C, in the test with SF-268, with CAKI-1, with SK-OV-3 and with MDA-MB-435 was > 100 µM (inactive) in each case. Further, the GI50 was > 100 µM (inactive) in the test with PC-3; > 100 µM (inactive) with U-251; above 100 µM in the test with HCT-15; > 100 µM (inactive) with SNB-75; 43.1 µM (inactive) with UACC-62; > 100 µM (inactive) in the test with OVCAR-8.
In the case of `COc1cc(C(=O)C2C(=O)c3ccccc3C2C2(O)c3ccccc3CC2C(O)c2cc(OC)c(OC)c(OC)c2)cc(OC)c1OC` (centres undefined), the GI50 with NCI-H23 was > 100 µM (inactive); with SNB-19, > 100 µM (inactive); in the test on HOP-92 it was 51.2 µM (inactive); with ACHN, > 100 µM (inactive); in the test on EKVX, > 100 µM (inactive); in the test with COLO 205 it was > 100 µM (inactive). In addition, the GI50 is > 100 µM (inactive) in the test on SN12C; 91.4 µM (inactive) in the test with SF-268; > 100 µM (inactive) in the test with Malme-3M; > 100 µM (inactive) with CAKI-1; 32.1 µM (inactive) in the test with SK-OV-3; > 100 µM (inactive) in the test on MDA-MB-435. Further, the GI50 with PC-3 is > 100 µM (inactive); in the test with U-251, 41.3 µM (inactive); with HCT-15 it was above 100 µM; in the test on SNB-75 it was 20.3 µM (inactive); with UACC-62, > 100 µM (inactive); with OVCAR-8, 62.4 µM (inactive).
`COc1ccc(C(=O)N2CCc3c([nH]c4ccccc34)C2C(=O)O)o1` (centres undefined): the GI50 in the test with SNB-19, in the test on HL-60, in the test on HOP-92, with ACHN, in the test with EKVX and with COLO 205 was > 10 µM (inactive) each time. In addition, the GI50 in the test on SN12C, with SF-268, in the test with Malme-3M, with CAKI-1, in the test on SK-OV-3 and with MDA-MB-435 was > 10 µM (inactive) each time. The GI50 in the test on PC-3 is > 10 µM (inactive); in the test on U-251 it was > 10 µM (inactive); in the test on HCT-15, above 10 µM; with SNB-75 it was > 10 µM (inactive); in the test with UACC-62, > 10 µM (inactive); in the test on OVCAR-8, > 10 µM (inactive).
As for `CC(C)(C)c1cc(S(=O)(=O)O)c2oc(-c3ccccc3)cc(=O)c2c1`, the GI50 in the test with NCI-H522, in the test with NCI-H23, in the test with SNB-19, in the test on HL-60, with ACHN and with EKVX was > 100 µM (inactive) each time. The GI50 in the test on COLO 205, with SN12C, in the test with SF-268, in the test on Malme-3M, in the test with CAKI-1 and in the test on MDA-MB-435 was > 100 µM (inactive) each time. For the same molecule, the GI50 with PC-3 was > 100 µM (inactive); in the test with U-251 it was > 100 µM (inactive); in the test on HCT-15 it was above 100 µM; in the test with SNB-75, > 100 µM (inactive); in the test with OVCAR-8, > 100 µM (inactive).
Regarding `C=CCC1C2CCC(O[Si](C(C)C)(C(C)C)C(C)C)(C(C(=O)OC)C2)C1O` (centres undefined), the GI50 with NCI-H23 was 23.5 µM (inactive); with SNB-19, > 100 µM (inactive); in the test with HL-60 it was 13.3 µM (inactive); with HOP-92 it was > 100 µM (inactive); in the test with ACHN it was > 100 µM (inactive); in the test on EKVX, 22.4 µM (inactive). In addition, the GI50 was > 100 µM (inactive) with COLO 205; > 100 µM (inactive) in the test with SN12C; > 100 µM (inactive) with SF-268; > 100 µM (inactive) with CAKI-1; > 100 µM (inactive) with SK-OV-3; 53.7 µM (inactive) in the test on MDA-MB-435. For the same molecule, the GI50 with PC-3 was 67.5 µM (inactive); in the test on U-251 it was 60.3 µM (inactive); in the test on HCT-15, 77.3 µM; with SNB-75 it was 71.1 µM (inactive); with UACC-62, 55.2 µM (inactive); in the test with OVCAR-8 it was > 100 µM (inactive).
With `O=C1c2ccccc2-c2ccc(O)cc21`, the GI50 is 16.1 µM (inactive) with NCI-H522; 16.9 µM (inactive) in the test on NCI-H23; 23.9 µM (inactive) in the test with SNB-19; 23.2 µM (inactive) in the test with HL-60; 16.6 µM (inactive) in the test on ACHN; 16.4 µM (inactive) with EKVX. In addition, the GI50 with COLO 205 is 19.7 µM (inactive); with SN12C, 15.7 µM (inactive); with SF-268, 19.1 µM (inactive); in the test with Malme-3M it was 23.4 µM (inactive); with CAKI-1 it was 14.8 µM (inactive); in the test on MDA-MB-435, 20.2 µM (inactive). In addition, the GI50 was 17.2 µM (inactive) in the test with PC-3; 26.7 µM (inactive) in the test on U-251; 21.6 µM in the test with HCT-15; 29 µM (inactive) with SNB-75; 15.3 µM (inactive) in the test with UACC-62; 20.2 µM (inactive) in the test with OVCAR-8.
Turning to `Brc1ccc2c(-c3csc(-c4c[nH]c5cc(Br)ccc45)n3)c[nH]c2c1`, the GI50 in the test with NCI-H23 was 18.5 µM (inactive); in the test with SNB-19 it was 21.3 µM (inactive); in the test on HL-60 it was 5.69 µM (inactive); with HOP-92, 31.1 µM (inactive); in the test on ACHN it was 44 µM (inactive); with EKVX it was 35.3 µM (inactive). Besides, the GI50 is 26.8 µM (inactive) with COLO 205; 37 µM (inactive) in the test with SN12C; 31.2 µM (inactive) in the test on SF-268; 28.4 µM (inactive) in the test on Malme-3M; 43.6 µM (inactive) in the test on CAKI-1; 18.5 µM (inactive) in the test on SK-OV-3. Also, the GI50 with MDA-MB-435 is 5.27 µM (inactive); with PC-3, 23.7 µM (inactive); with U-251, 15.8 µM (inactive); in the test with HCT-15 it was 12.4 µM; in the test with SNB-75 it was 25.1 µM (inactive); in the test with UACC-62, 40.5 µM (inactive). For the same molecule, the GI50 with OVCAR-8 was 21 µM (inactive).
For `CC(=O)O[C@H]1CN(S(=O)(=O)c2ccc(C)cc2)C[C@@H]1C1CCCCC1`, the GI50 is 36.3 µM (inactive) with NCI-H23; 55.3 µM (inactive) in the test on SNB-19; 23.2 µM (inactive) in the test with HOP-92; 36.9 µM (inactive) in the test on ACHN; 17 µM (inactive) in the test with EKVX; 46.8 µM (inactive) in the test with COLO 205. For the same molecule, the GI50 is 26.7 µM (inactive) in the test with SF-268; 45.8 µM (inactive) in the test on CAKI-1; 43.7 µM (inactive) in the test on SK-OV-3; 27.9 µM (inactive) in the test with MDA-MB-435; 20.1 µM (inactive) with PC-3; 29.7 µM (inactive) in the test with U-251. The GI50 with HCT-15 was 28.4 µM; with SNB-75, 24.9 µM (inactive); in the test on UACC-62 it was 22.6 µM (inactive); with OVCAR-8, 22.7 µM (inactive).
As to `COc1ccc(CCCNC(=O)Cc2ccccc2CO)cc1OC`, the GI50 in the test with NCI-H23, with SNB-19, in the test with HL-60, with HOP-92, in the test with ACHN and in the test on EKVX was > 100 µM (inactive) each time. Besides, the GI50 in the test with COLO 205, with SN12C, in the test on Malme-3M, in the test with CAKI-1, in the test with MDA-MB-435 and with PC-3 was > 100 µM (inactive) throughout. Moreover, the GI50 in the test with U-251 is > 100 µM (inactive); in the test with HCT-15 it was above 100 µM; in the test on SNB-75, > 100 µM (inactive); in the test with UACC-62, > 100 µM (inactive); in the test on OVCAR-8, > 100 µM (inactive).
Turning to `COc1c(Cl)nc2ccccc2c1N=[N+]=[N-]`, the GI50 was 92.7 µM (inactive) in the test on NCI-H23; > 100 µM (inactive) in the test with SNB-19; 53.3 µM (inactive) in the test on HL-60; 22.2 µM (inactive) with HOP-92; 43.4 µM (inactive) with ACHN; > 100 µM (inactive) in the test with COLO 205. Besides, the GI50 in the test with SN12C is 92 µM (inactive); in the test with SF-268 it was 28.7 µM (inactive); in the test with Malme-3M, > 100 µM (inactive); in the test with CAKI-1, 49.4 µM (inactive); in the test on SK-OV-3, > 100 µM (inactive); in the test on MDA-MB-435, > 100 µM (inactive). Further, the GI50 is 46 µM (inactive) in the test with PC-3, > 100 µM (inactive) with U-251, 63 µM (inactive) in the test with SNB-75 and 54.2 µM (inactive) with UACC-62.
As to `COc1cc2cc(C(=O)N3CC(CCl)c4c3cc(NC(=O)OCc3ccc([N+](=O)[O-])cc3)c3ccccc43)[nH]c2c(OC)c1OC` (centres undefined), the GI50 was 0.158 µM (active) in the test on NCI-H23; > 100 µM (inactive) in the test with SNB-19; 0.11 µM (active) in the test on HL-60; > 45.7 µM (inactive) in the test on HOP-92; < 0.0116 µM (active) in the test with ACHN; 43 µM (inactive) in the test with EKVX. In addition, the GI50 with COLO 205 is > 100 µM (inactive); in the test with SN12C it was > 100 µM (inactive); in the test on SF-268, 24.6 µM (inactive); in the test on Malme-3M, > 100 µM (inactive); in the test on CAKI-1 it was 0.153 µM (active); in the test with SK-OV-3, < 0.01 µM (active). For the same molecule, the GI50 in the test with MDA-MB-435 was > 100 µM (inactive); in the test on PC-3, > 60 µM (inactive); in the test with U-251 it was 38.5 µM (inactive); in the test with HCT-15, above 50.2 µM; with SNB-75 it was 20.5 µM (inactive); with UACC-62, > 38 µM (inactive). The GI50 with OVCAR-8 was 1.1 µM (active).
